Test results as given in patent publication US9695155B2, “Herbicidal substituted pyrimidinyloxy benzene compounds” (E. I. DU PONT DE NEMOURS AND COMPANY, priority 2013, dated 2017).

How the values were obtained:
palmer pigweed = assay: Test E preemergence; assay type: in vivo, Amaranthus palmeri; conditions: for Pigweed, Palmer plant response rating: scale 0 to 100 (0 no effect, 100 complete control); for Plant response rating, Pigweed, Palmer: 125 g ai/ha, scale 0 to 100, 0 no effect, 100 complete control
How it was run: (§1)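 Compound in a non-phytotoxic solvent mixture with surfactant was applied preemergence to seeds in silt loam soil, or postemergence to plants 2 to 18 cm tall grown in peat-based potting medium. Plants were kept in a greenhouse for 14 to 21 days, then rated visually against untreated controls on a 0 (no effect) to 100 (complete control) scale.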

sandbur = assay: Test E preemergence; assay type: in vivo, Cenchrus echinatus; conditions: for Sandbur plant response rating: scale 0 to 100 (0 no effect, 100 complete control); for Plant response rating, Sandbur: 125 g ai/ha, scale 0 to 100, 0 no effect, 100 complete control
How it was run: as §1

Italian ryegrass = assay: Test E preemergence; assay type: in vivo, Lolium multiflorum; conditions: for Ryegrass, Italian plant response rating: scale 0 to 100 (0 no effect, 100 complete control); for Plant response rating, Ryegrass, Italian: 125 g ai/ha, scale 0 to 100, 0 no effect, 100 complete control
How it was run: as §1

lambsquarters = assay: Test E preemergence; assay type: in vivo, Chenopodium album; conditions: for Lambsquarters plant response rating: scale 0 to 100 (0 no effect, 100 complete control); for Plant response rating, Lambsquarters: 125 g ai/ha, scale 0 to 100, 0 no effect, 100 complete control
How it was run: as §1

corn = assay: Test E preemergence; assay type: in vivo, Zea mays; conditions: for Corn plant response rating: scale 0 to 100 (0 no effect, 100 complete control); for Plant response rating, Corn: 125 g ai/ha, scale 0 to 100, 0 no effect, 100 complete control
How it was run: as §1

soybean = assay: Test E preemergence; assay type: in vivo, Glycine max; conditions: for Soybean plant response rating: scale 0 to 100 (0 no effect, 100 complete control); for Plant response rating, Soybean: 125 g ai/ha, scale 0 to 100, 0 no effect, 100 complete control
How it was run: as §1

morningglory = assay: Test E preemergence; assay type: in vivo, Ipomoea coccinea; conditions: for Morningglory plant response rating: scale 0 to 100 (0 no effect, 100 complete control); for Plant response rating, Morningglory: 125 g ai/ha, scale 0 to 100, 0 no effect, 100 complete control
How it was run: as §1

kochia = assay: Test A postemergence; assay type: in vivo, Kochia scoparia; conditions: 0 to 100 scale where 0 is no effect and 100 is complete control
How it was run: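 Compounds in non-phytotoxic solvent with surfactant applied as soil spray preemergence, or postemergence to plants 2-10 cm at one- to two-leaf stage, in loam/sand. After approximately 10 days in greenhouse, injury rated visually versus untreated controls, 0 (no effect) to 100 (complete control).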

surinam grass = assay: Test E preemergence; assay type: in vivo, Brachiaria decumbens; conditions: for Surinam Grass plant response rating: scale 0 to 100 (0 no effect, 100 complete control); for Plant response rating, Surinam Grass: 125 g ai/ha, scale 0 to 100, 0 no effect, 100 complete control
How it was run: as §1

fall panicum = assay: Test E preemergence; assay type: in vivo, Panicum dichotomiflorum; conditions: for Panicum, Fall plant response rating: scale 0 to 100 (0 no effect, 100 complete control); for Plant response rating, Panicum, Fall: 125 g ai/ha, scale 0 to 100, 0 no effect, 100 complete control
How it was run: as §1

goosegrass = assay: Test E preemergence; assay type: in vivo, Eleusine indica; conditions: for Goosegrass plant response rating: scale 0 to 100 (0 no effect, 100 complete control); for Plant response rating, Goosegrass: 125 g ai/ha, scale 0 to 100, 0 no effect, 100 complete control
How it was run: as §1

waterhemp = assay: Test E preemergence; assay type: in vivo, Amaranthus rudis; conditions: for Waterhemp plant response rating: scale 0 to 100 (0 no effect, 100 complete control); for Plant response rating, Waterhemp: 125 g ai/ha, scale 0 to 100, 0 no effect, 100 complete control
How it was run: as §1

giant foxtail = assay: Test E preemergence; assay type: in vivo, Setaria faberii; conditions: for Foxtail, Giant plant response rating: scale 0 to 100 (0 no effect, 100 complete control); for Plant response rating, Foxtail, Giant: 125 g ai/ha, scale 0 to 100, 0 no effect, 100 complete control
How it was run: as §1

For `N#Cc1cccc(Oc2ncc(F)cn2)c1-n1cc(I)cn1` [Compound 86], which “Pigweed, Palmer plant response rating” value (palmer pigweed; 31 g ai/ha) is on record?
The value was 0.

And the “Pigweed, Palmer plant response rating” value (palmer pigweed; 62 g ai/ha)?
The value was 100.

And the “Plant response rating, Pigweed, Palmer” value (palmer pigweed)?
The value was 100.

And the “Sandbur plant response rating” value (sandbur; 16 g ai/ha)?
The value was 0.

And the “Sandbur plant response rating” value (sandbur; 31 g ai/ha)?
Its value is 10.

What about the “Sandbur plant response rating” value (sandbur; 62 g ai/ha) of the same compound?
Its value is 10.

And the “Plant response rating, Sandbur” value (sandbur)?
The value was 10.

What about the “Ryegrass, Italian plant response rating” value (Italian ryegrass; 16 g ai/ha) of the same compound?
The value was 0.

What about the “Ryegrass, Italian plant response rating” value (Italian ryegrass; 31 g ai/ha) of the same compound?
The value was 0.

And the “Ryegrass, Italian plant response rating” value (Italian ryegrass; 62 g ai/ha)?
Its value is 0.

And the “Plant response rating, Ryegrass, Italian” value (Italian ryegrass)?
Its value is 5.

And the “Lambsquarters plant response rating” value (lambsquarters; 16 g ai/ha)?
Its value is 0.

What about the “Lambsquarters plant response rating” value (lambsquarters; 31 g ai/ha) of the same compound?
The value was 65.

What about the “Lambsquarters plant response rating” value (lambsquarters; 62 g ai/ha) of the same compound?
Its value is 100.

What about the “Plant response rating, Lambsquarters” value (lambsquarters) of the same compound?
Its value is 100.

What about the “Corn plant response rating” value (corn; 16 g ai/ha) of the same compound?
The value was 0.

What about the “Corn plant response rating” value (corn; 31 g ai/ha) of the same compound?
Its value is 0.

What about the “Corn plant response rating” value (corn; 62 g ai/ha) of the same compound?
Its value is 0.

And the “Plant response rating, Corn” value (corn)?
Its value is 5.

What about the “Soybean plant response rating” value (soybean; 16 g ai/ha) of the same compound?
Its value is 0.

What about the “Soybean plant response rating” value (soybean; 31 g ai/ha) of the same compound?
The value was 0.

What about the “Soybean plant response rating” value (soybean; 62 g ai/ha) of the same compound?
The value was 35.

What about the “Plant response rating, Soybean” value (soybean) of the same compound?
Its value is 60.

What about the “Morningglory plant response rating” value (morningglory; 16 g ai/ha) of the same compound?
Its value is 0.

And the “Morningglory plant response rating” value (morningglory; 31 g ai/ha)?
Its value is 10.

And the “Morningglory plant response rating” value (morningglory; 62 g ai/ha)?
Its value is 30.

What about the “Plant response rating, Morningglory” value (morningglory) of the same compound?
Its value is 75.

What about the “Plant response rating, Kochia” value (kochia; 125 g ai/ha) of the same compound?
The value was 100.

And the “Plant response rating, Kochia” value (kochia; 500 g ai/ha)?
The value was 100.

What about the “Surinam Grass plant response rating” value (surinam grass; 16 g ai/ha) of the same compound?
Its value is 0.

And the “Surinam Grass plant response rating” value (surinam grass; 31 g ai/ha)?
Its value is 0.

What about the “Surinam Grass plant response rating” value (surinam grass; 62 g ai/ha) of the same compound?
Its value is 0.

What about the “Plant response rating, Surinam Grass” value (surinam grass) of the same compound?
Its value is 0.

And the “Panicum, Fall plant response rating” value (fall panicum; 16 g ai/ha)?
Its value is 0.

What about the “Panicum, Fall plant response rating” value (fall panicum; 31 g ai/ha) of the same compound?
Its value is 35.

What about the “Panicum, Fall plant response rating” value (fall panicum; 62 g ai/ha) of the same compound?
Its value is 90.

And the “Plant response rating, Panicum, Fall” value (fall panicum)?
Its value is 100.

What about the “Goosegrass plant response rating” value (goosegrass; 16 g ai/ha) of the same compound?
Its value is 0.

And the “Goosegrass plant response rating” value (goosegrass; 31 g ai/ha)?
Its value is 0.

What about the “Goosegrass plant response rating” value (goosegrass; 62 g ai/ha) of the same compound?
Its value is 50.

What about the “Plant response rating, Goosegrass” value (goosegrass) of the same compound?
Its value is 50.

What about the “Waterhemp plant response rating” value (waterhemp; 16 g ai/ha) of the same compound?
Its value is 0.

What about the “Waterhemp plant response rating” value (waterhemp; 31 g ai/ha) of the same compound?
The value was 70.

And the “Waterhemp plant response rating” value (waterhemp; 62 g ai/ha)?
The value was 100.

And the “Plant response rating, Waterhemp” value (waterhemp)?
The value was 100.

And the “Foxtail, Giant plant response rating” value (giant foxtail; 16 g ai/ha)?
Its value is 0.

What about the “Foxtail, Giant plant response rating” value (giant foxtail; 31 g ai/ha) of the same compound?
Its value is 15.

What about the “Foxtail, Giant plant response rating” value (giant foxtail; 62 g ai/ha) of the same compound?
The value was 30.

What about the “Plant response rating, Foxtail, Giant” value (giant foxtail) of the same compound?
The value was 100.

Which results are given for `N#Cc1cccc(Oc2ncc(Br)cn2)c1-n1cc(I)cn1` [Compound 88]?
Pigweed, Palmer plant response rating (palmer pigweed; 16 g ai/ha): 0; Pigweed, Palmer plant response rating (palmer pigweed; 31 g ai/ha): 0; Pigweed, Palmer plant response rating (palmer pigweed; 62 g ai/ha): 0; Plant response rating, Pigweed, Palmer (palmer pigweed): 75; Sandbur plant response rating (sandbur; 16 g ai/ha): 0; Sandbur plant response rating (sandbur; 31 g ai/ha): 0; Sandbur plant response rating (sandbur; 62 g ai/ha): 0; Plant response rating, Sandbur (sandbur): 10; Ryegrass, Italian plant response rating (Italian ryegrass; 16 g ai/ha): 0; Ryegrass, Italian plant response rating (Italian ryegrass; 31 g ai/ha): 0; Ryegrass, Italian plant response rating (Italian ryegrass; 62 g ai/ha): 0; Plant response rating, Ryegrass, Italian (Italian ryegrass): 0; Lambsquarters plant response rating (lambsquarters; 16 g ai/ha): 75; Lambsquarters plant response rating (lambsquarters; 31 g ai/ha): 50; Lambsquarters plant response rating (lambsquarters; 62 g ai/ha): 100; Plant response rating, Lambsquarters (lambsquarters): 100; Corn plant response rating (corn; 16 g ai/ha): 0; Corn plant response rating (corn; 31 g ai/ha): 0; Corn plant response rating (corn; 62 g ai/ha): 35; Plant response rating, Corn (corn): 35; Soybean plant response rating (soybean; 16 g ai/ha): 35; Soybean plant response rating (soybean; 31 g ai/ha): 0; Soybean plant response rating (soybean; 62 g ai/ha): 20; Plant response rating, Soybean (soybean): 20; Morningglory plant response rating (morningglory; 16 g ai/ha): 0; Morningglory plant response rating (morningglory; 31 g ai/ha): 0; Morningglory plant response rating (morningglory; 62 g ai/ha): 10; Plant response rating, Morningglory (morningglory): 15; Plant response rating, Kochia (kochia; 125 g ai/ha): 80; Plant response rating, Kochia (kochia; 500 g ai/ha): 100; Surinam Grass plant response rating (surinam grass; 16 g ai/ha): 0; Surinam Grass plant response rating (surinam grass; 31 g ai/ha): 0; Surinam Grass plant response rating (surinam grass; 62 g ai/ha): 0; Plant response rating, Surinam Grass (surinam grass): 10; Panicum, Fall plant response rating (fall panicum; 16 g ai/ha): 0; Panicum, Fall plant response rating (fall panicum; 31 g ai/ha): 0; Panicum, Fall plant response rating (fall panicum; 62 g ai/ha): 0; Plant response rating, Panicum, Fall (fall panicum): 10; Goosegrass plant response rating (goosegrass; 16 g ai/ha): 0; Goosegrass plant response rating (goosegrass; 31 g ai/ha): 0; Goosegrass plant response rating (goosegrass; 62 g ai/ha): 5; Plant response rating, Goosegrass (goosegrass): 5; Waterhemp plant response rating (waterhemp; 16 g ai/ha): 20; Waterhemp plant response rating (waterhemp; 31 g ai/ha): 35; Waterhemp plant response rating (waterhemp; 62 g ai/ha): 35; Plant response rating, Waterhemp (waterhemp): 100; Foxtail, Giant plant response rating (giant foxtail; 16 g ai/ha): 0; Foxtail, Giant plant response rating (giant foxtail; 31 g ai/ha): 0; Foxtail, Giant plant response rating (giant foxtail; 62 g ai/ha): 0; Plant response rating, Foxtail, Giant (giant foxtail): 25
